Experimental findings from BindingDB's records for doi:10.1016/j.bmcl.2005.06.044 (The University of Tokyo, 2005) are described below.

Usually IC50 stands for the point on the concentration scale where inhibition reaches its midpoint. High values mean weaker potency, low ones greater potency.

A short description of this assay: Androgen antagonistic activity as inhibitory concentration against testosterone-induced SC-3 cell proliferation.
As to `CCC(CC)(c1ccc(NCC(O)CO)c(C)c1)c1ccc(OCC(O)C(C)(C)C)c(C)c1` (centres undefined) [3-(4-{1-Ethyl-1-[4-(2-hydroxy-3,3-dimethyl-butoxy)-3-methyl-phenyl]-propyl}-2-methyl-phenylamino)-propane-1,2-diol], the IC50 worked out at 9 nM.

`CCC(CC)(c1ccc(NCCC(C)(C)O)c(C)c1)c1ccc(OCC(=O)C(C)(C)C)c(C)c1` [1-(4-{1-Ethyl-1-[4-(3-hydroxy-3-methyl-butylamino)-3-methyl-phenyl]-propyl}-2-methyl-phenoxy)-3,3-dimethyl-butan-2-one]: the IC50 is 820 nM. Against the preceding molecule, the IC50 is about 91-fold higher.

Molecule `CCC(CC)(c1ccc(NCC(=O)C(C)(C)C)c(C)c1)c1ccc(OCC(=O)C(C)(C)C)c(C)c1` came in with an IC50 of 1200 nM.

Take `CCC(CC)(c1ccc(NCCC(C)(C)O)c(C)c1)c1ccc(NCCC(C)(C)O)c(C)c1` [4-(4-{1-Ethyl-1-[4-(3-hydroxy-3-methyl-butylamino)-3-methyl-phenyl]-propyl}-2-methyl-phenylamino)-2-methyl-butan-2-ol]: the IC50 is 6800 nM.

With `CCC(CC)(c1ccc(OCC(=O)C(C)(C)C)c(C)c1)c1ccc(OCC(=O)C(C)(C)C)c(C)c1` [LG190155], 1900 nM corresponded to half-maximal inhibition (IC50).

On to `CCC(CC)(c1ccc(O)c(C)c1)c1ccc(NCC(=O)C(C)(C)C)c(C)c1`, for which 3500 nM corresponded to half-maximal inhibition (IC50).

In turn, `CCC(CC)(c1ccc(OC[C@H](O)CO)c(C)c1)c1ccc(OC[C@H](O)C(C)(C)C)c(C)c1` [(R)-3-(4-(3-(4-((R)-2-hydroxy-3,3-dimethylbutoxy)-3-methylphenyl)pentan-3-yl)-2-methylphenoxy)propane-1,2-diol] came in with an IC50 of 19 nM.

`CCC(CC)(c1ccc(NCC(O)C(C)(C)C)c(C)c1)c1ccc(NCC(O)C(C)(C)C)c(C)c1` (centres undefined) displayed an IC50 of 1000 nM.

`CCC(CC)(c1ccc(NCC(=O)C(C)(C)C)c(C)c1)c1ccc(NCC(=O)C(C)(C)C)c(C)c1` had an IC50 of 1000 nM.
